One experiment addresses T1, Human FXR full length (Homo sapiens, UniProt Q96RI1).
T1 construct: Human FXR full length and RXR full length was obtained from Ronald Evans' laboratory; expressed in transfected cells; host or cells: CV-1 cells
T1 sequence (Q96RI1 1-476 isoform Q96RI1-1): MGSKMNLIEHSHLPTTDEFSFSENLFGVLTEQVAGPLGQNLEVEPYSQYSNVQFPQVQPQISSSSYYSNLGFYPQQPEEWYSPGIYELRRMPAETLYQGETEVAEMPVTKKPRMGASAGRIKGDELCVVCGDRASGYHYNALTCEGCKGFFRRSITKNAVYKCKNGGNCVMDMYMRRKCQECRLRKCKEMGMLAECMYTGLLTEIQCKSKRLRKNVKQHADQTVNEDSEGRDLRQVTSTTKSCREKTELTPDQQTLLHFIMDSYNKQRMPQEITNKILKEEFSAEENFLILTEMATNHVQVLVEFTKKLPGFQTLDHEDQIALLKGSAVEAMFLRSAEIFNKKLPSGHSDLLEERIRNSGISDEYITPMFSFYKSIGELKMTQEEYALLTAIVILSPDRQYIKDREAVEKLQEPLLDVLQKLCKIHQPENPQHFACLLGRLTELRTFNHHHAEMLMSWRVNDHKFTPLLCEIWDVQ
T1 sequence (P19793 1-462 partner): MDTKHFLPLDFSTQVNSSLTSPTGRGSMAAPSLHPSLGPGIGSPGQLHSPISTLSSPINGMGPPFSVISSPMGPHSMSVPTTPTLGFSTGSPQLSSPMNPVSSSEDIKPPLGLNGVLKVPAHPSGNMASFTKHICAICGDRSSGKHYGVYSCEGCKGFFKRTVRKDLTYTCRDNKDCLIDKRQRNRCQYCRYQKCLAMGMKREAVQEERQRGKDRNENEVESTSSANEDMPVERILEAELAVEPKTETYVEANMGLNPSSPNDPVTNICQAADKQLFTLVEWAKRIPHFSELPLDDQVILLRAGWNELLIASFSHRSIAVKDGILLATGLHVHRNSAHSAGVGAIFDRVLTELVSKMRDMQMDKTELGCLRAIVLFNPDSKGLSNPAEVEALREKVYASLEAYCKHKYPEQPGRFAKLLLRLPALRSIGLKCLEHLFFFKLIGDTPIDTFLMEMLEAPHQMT
In words: FXR activity screen, luciferase reporter in transfected CV-1 cells. Type of experiment: cell-based. The following applies: fexaramine control in the retest; read-out: Fex EC50. The method in brief: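 CV-1 cells in charcoal-stripped serum, transfected with full-length human FXR, RXR, FXRE-luciferase reporter and β-Gal; 48 h expression, then 24 h compound (0.001–100 μM, quadruplicate, 1:1000 DMSO dilution). Luciferase normalized to β-galactosidase; fold induction vs untreated, efficacy relative to fexaramine, EC50 by non-linear regression.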
On the technique in general: In a reporter assay the amount or activity of a reporter protein is the signal.

In another experiment the test system is ob/ob mice. In words: fexaramine and deuterated analogs in ob/ob mice, 2 weeks. Type of experiment: in vivo. Particulars: 2 weeks at 50 mg/kg PO. The procedure:
An in vivo study of fexaramine and selectively-deuterated fexaramine compounds (FIG. 29A) was performed. Briefly, ob/ob mice were treated daily with vehicle, Fex, or deuterated analogs (50 mg kg^−1) by oral (PO) gavage for 2 weeks. Subsequently, body weight, body temperature, fasting blood glucose and insulin levels, insulin secretion, and GLP1 section were measured, and glucose tolerance tests (GTTs) performed.

The values below come from patent US20190084939A1, “ANALOGS OF FEXARAMINE AND METHODS OF MAKING AND USING” (Salk Institute for Biological Studies, priority 2014, published 2019).

One may read the EC50 as the concentration that produces a half-maximal response. On to `COC(=O)/C=C/c1cccc(N(Cc2ccc(-c3ccc(N(C)C)cc3)cc2)C(=O)C2CCCCC2)c1` [Fexaramine, fexaramine], for which, at Human FXR full length, the EC50 was 63 nM. For the same molecule, in the experiment with ob/ob mice, the body weight result is listed as “do not affect body weight”, the core body temperature result was “did increase core body temperature” and the “fasting blood glucose levels” value is given as “does not significantly affect”.
